Test results: US20090311279A1, “Colorectal Cancer Antigen” (National Institutes of Health, priority 2004, published 2009)

Tests used:
Assay type in all cases: cell-based, human
[1] = tested on: CD4+ clone C111 T cells; 1847 CD40L B cells (HLA-DRβ1*1301); assay: Peptide-pulsed 1847 CD40L B cells, IFN-γ release from clone C111 by ELISA; details: 18 hrs
Experimental: (§1) Peptides of 20 or 21 amino acids in length that overlapped by 15 amino acids that were encoded by the long open reading frame of the original cDNA clone that was isolated were synthesised by solid-phase method using a peptide synthesiser (AMS 422; Gilson Co., Inc. Middleton, Wis.). The purity of the peptides was verified by mass spectrometry (Tuft's Core Facility, Boston, Mass.). […] After three hours, 1-5×10^4 T cells were added to the wells in 150 μl/well of medium and incubated for 18 hours at 37° C. and 5% CO2, followed by measurement of INF-γ release by ELISA.
(§2) Peptides that were 20 or 21 amino acids in length and that overlapped by either 14 or 16 amino acids, were than synthesised and tested for their ability to sensitise target cells for recognition by C111 T cells. Since autologous normal B cells could not be efficiently expanded, allogeneic normal B cells expressing either DRβ1*0402 or DRβ1*1301 were used to carry out these assays.
(§3) The 1681 and 1847 CD40L stimulated normal B cell lines shared expression of HLA-DRβ1*0402 and HLA-DRβ1*1301 molecules, respectively, with the autologous tumour cell line. These cells were incubated with the panel of peptides and then tested for their ability to stimulate cytokine release from C111 T cells.

[2] = tested on: CD4+ clone C111 T cells; 1681 CD40L B cells (HLA-DRβ1*0402); assay: Peptide-pulsed 1681 CD40L B cells, IFN-γ release from clone C111 by ELISA; details: 18 hrs
Experimental: as §1, §2, §3

C111 T cells = assay: Peptide pulsing of target cells expressing HLA-DRβ1*0402 or 1301, cytokine release from C111 T cells; details: 1681 and 1847 CD40L B cells pulsed with peptide
Experimental: Peptides of 20 or 21 amino acids in length that overlapped by 15 amino acids that were encoded by the long open reading frame of the original cDNA clone that was isolated were synthesised by solid-phase method using a peptide synthesiser (AMS 422; Gilson Co., Inc. Middleton, Wis.). The purity of the peptides was verified by mass spectrometry (Tuft's Core Facility, Boston, Mass.). Allogeneic B cells (1×10^5 cells/well) that expressed either the DRβ1*0402 or the DRβ1*1301 molecules were incubated with 50 μg/ml in 100 μl/well of ISCOVE'S medium plus 10% HS in flat bottom-96-well plates. After three hours, 1-5×10^4 T cells were added to the wells in 150 μl/well of medium and incubated for 18 hours at 37° C. and 5% CO2, followed by measurement of INF-γ release by ELISA.
as §2
The 1681 and 1847 CD40L stimulated normal B cell lines shared expression of HLA-DRβ1*0402 and HLA-DRβ1*1301 molecules, respectively, with the autologous tumour cell line. […]

[3] = 1847 CD40LB pulsed with peptide 12.5 μg/ml
[4] = 1847 CD40LB pulsed with peptide 25 μg/ml
[5] = 1847 CD40LB pulsed with peptide 26.25 μg/ml
[6] = 1847 CD40LB pulsed with peptide 50 μg/ml
[7] = 1847 CD40LB pulsed with peptide 100 μg/ml
[8] = 1681 CD40LB pulsed with peptide 12.5 μg/ml
[9] = 1681 CD40LB pulsed with peptide 25 μg/ml
[10] = 1681 CD40LB pulsed with peptide 26.25 μg/ml
[11] = 1681 CD40LB pulsed with peptide 50 μg/ml
[12] = 1681 CD40LB pulsed with peptide 100 μg/ml

| Sequence | IFN-γ release from clone C111 [1, 3] | IFN-γ release from clone C111 [1, 4] | IFN-γ release from clone C111 [1, 5] | IFN-γ release from clone C111 [1, 6] | IFN-γ release from clone C111 [1, 7] | IFN-γ release from clone C111 [2, 8] | IFN-γ release from clone C111 [2, 9] | IFN-γ release from clone C111 [2, 10] | IFN-γ release from clone C111 [2, 11] | IFN-γ release from clone C111 [2, 12] | cytokine release from C111 T cells (C111 T cells) |
| --- | --- | --- | --- | --- | --- | --- | --- | --- | --- | --- | --- |
| ASAFEIFSTFPPTLYQDDTL [COA-1-derived overlapping peptide] | < 7.8 pg/mL | < 7.8 pg/mL | < 7.8 pg/mL | < 7.8 pg/mL | < 7.8 pg/mL |  |  |  |  |  |  |
| DDTLTLQAAGLVPKAALLLRA [COA-1-derived overlapping peptide] | < 7.8 pg/mL | < 7.8 pg/mL | < 7.8 pg/mL | 33 pg/mL | 22 pg/mL | < 7.8 pg/mL | < 7.8 pg/mL | < 7.8 pg/mL | 16 pg/mL | 11 pg/mL |  |
| FSTFPPTLYQDDTLTLQAAG (listed as Homo sapiens) [COA-1-derived overlapping peptide] | 79 pg/mL | 296 pg/mL | < 7.8 pg/mL | 397 pg/mL | 226 pg/mL | < 7.8 pg/mL | 69 pg/mL | < 7.8 pg/mL | 236 pg/mL | 105 pg/mL | stimulated significant cytokine release |
| LQAAGLVPKAALLLRARRAP [COA-1-derived overlapping peptide] | < 7.8 pg/mL | < 7.8 pg/mL | < 7.8 pg/mL | 32 pg/mL | 52 pg/mL | < 7.8 pg/mL | < 7.8 pg/mL | < 7.8 pg/mL | 12 pg/mL | 21 pg/mL |  |
| TLYQDDTLTLQAAGLVPKAA (listed as Homo sapiens) [COA-1-derived overlapping peptide] | < 7.8 pg/mL | < 7.8 pg/mL | < 7.8 pg/mL | 326 pg/mL | 79 pg/mL | < 7.8 pg/mL | < 7.8 pg/mL | < 7.8 pg/mL | 159 pg/mL | 51 pg/mL | stimulated significant cytokine release |
